US20250213571A1, “TYK2 INHIBITORS AND USES THEREOF” (Alumis Inc., priority 2022, published 2025)
Read-outs that look alike come from different tables or passages of the source.

Conditions: 14-membered ring

For “tert-butyl N-methyl-N-[(12R)-12-methyl-10-oxo-14-oxa-2,4,5,7,11,18-hexaazapentacyclo[13.6.2.2^(3,6.0^(5,9.0^(19,23]pentacosa-1(22),3,6,8,15,17,19(23),20,24-nonaen-24-yl]carbamate”, the ring closure, isolated yield (cn_pd bond, Pd2(dba)3/Cs2CO3, 1,4-dioxane, 42.3 mM, 80.0 °C) was 67%.

With C[C@@H]1COc2ccnc3cnc(cc23)Nc2cc(N(C)C(=O)OC(C)(C)C)c3ncc(n3n2)C(=O)N1 the ring closure, isolated yield (from C[C@H](COc1ccnc2cnc(N)cc12)NC(=O)c1cnc2c(N(C)C(=O)OC(C)(C)C)cc(Cl)nn12, cn_pd bond, Pd2(dba)3/Xantphos/Cs2CO3, 1,4-dioxane, 57.0 mM, 80.0 °C, 16.0 h) was 54%.

Work on CNc1nc2cnc3cn2c1C(=O)N[C@H](C)COCc1cc(c2nnn(C)c2c1)N3 yielded a ring closure, isolated yield (from CNc1nc2cnc(Br)cn2c1C(=O)N[C@H](C)COCc1cc(N)c2nnn(C)c2c1, cn_pd bond, RuPhos Pd G3/Cs2CO3, dioxane, 62.0 mM, 100.0 °C, 16.0 h) of 10%.

With “tert-butyl N-methyl-N-[(14R)-14-methyl-16-oxo-12-oxa-2,7,8,15,19,23,24-heptaazapentacyclo[15.5.2.1^(3,10.0^(5,9.0^(20,24]pentacosa-1(23),3(25),4,6,9,17,19,21-octaen-21-yl]carbamate” the ring closure, isolated yield (cn_pd bond, Pd2(dba)3/BINAP/Cs2CO3, 1,4-dioxane, 23.0 mM, 80.0 °C) was 71%.

Compound “(14R)-19-[(4-methoxyphenyl)methyl]-21-([(4-methoxyphenyl)methyl](methyl)amino-7,14-dimethyl-12-oxa-2,5,6,7,15,18,19,22,23-nonaazapentacyclo[15.5.2.1^(3,10.0^(4,8.0^(20,24]pentacosa-1(23),3(25),4(8),5,9,17,20(24),21-octaen-16-one” has a ring closure, isolated yield (cn_pd bond, Pd2(dba)3/Xantphos/Cs2CO3, 1,4-dioxane, 36.5 mM, 100.0 °C) of 74%.

Compound C[C@@H]1COCc2cc(c3nnn(C)c3c2)Nc2cc(N(C)C(=O)OC(C)(C)C)n3ncc(c3n2)C(=O)O1 has a ring closure, isolated yield (from C[C@@H](O)COCc1cc(Nc2cc(N(C)C(=O)OC(C)(C)C)n3ncc(C(=O)O)c3n2)c2nnn(C)c2c1, ester bond, DIAD/PPh3, DCM, 20.0 mM, 16.0 h) of 52%.

Work on C[C@@H]1COCc2cc(cn3ccnc23)Nc2cc(N(C)C(=O)OC(C)(C)C)c3ncc(n3n2)C(=O)N1 yielded a ring closure, isolated yield (from C[C@H](COCc1cc(N)cn2ccnc12)NC(=O)c1cnc2c(N(C)C(=O)OC(C)(C)C)cc(Cl)nn12, cn_pd bond, Pd2(dba)3/Xantphos/Cs2CO3, 1,4-dioxane, 80.0 °C) of 34%.

“tert-butyl N-methy 1-N-[(12R)-12-methyl-10-oxo-14-oxa-2,4,5,7,11,20-hexaazapentacyclo [13.6.2.2^{3,6}0.^{5,9}0.^{19,23}]pentacosa 1(21),3,6,8,15,17,19,22,24-nonaen-24-yl]carbamate” showed a ring closure, isolated yield (cn_pd bond, Pd2(dba)3/Xantphos, 1,4-dioxane, 34.0 mM, 80.0 °C) of 66%.

“tert-butyl N-methyl-N-[(12R)-12-methyl-10-oxo-2,4,5,7,11,14,16,18-octaazapentacyclo[13.6.2.2^(3,6.0^(5,9.0^(19,23]pentacosa-1(21),3,6,8,15,17,19,22,24-nonaen-24-yl]carbamate” gave a ring closure, isolated yield (cn_pd bond, Pd2(dba)3/Xantphos/Cs2CO3, 1,4-dioxane, 100.0 mM, 85.0 °C) of 18%.
